Experimental data: paper PMC3586822 (Chemico-biological interactions, 2012)

Biological target: human AChE (Homo sapiens, UniProt P22303)
Assay: coupled Ellman assay, second-order hydrolysis
Type: biochemical

Sequence of human AChE (P22303 32-614): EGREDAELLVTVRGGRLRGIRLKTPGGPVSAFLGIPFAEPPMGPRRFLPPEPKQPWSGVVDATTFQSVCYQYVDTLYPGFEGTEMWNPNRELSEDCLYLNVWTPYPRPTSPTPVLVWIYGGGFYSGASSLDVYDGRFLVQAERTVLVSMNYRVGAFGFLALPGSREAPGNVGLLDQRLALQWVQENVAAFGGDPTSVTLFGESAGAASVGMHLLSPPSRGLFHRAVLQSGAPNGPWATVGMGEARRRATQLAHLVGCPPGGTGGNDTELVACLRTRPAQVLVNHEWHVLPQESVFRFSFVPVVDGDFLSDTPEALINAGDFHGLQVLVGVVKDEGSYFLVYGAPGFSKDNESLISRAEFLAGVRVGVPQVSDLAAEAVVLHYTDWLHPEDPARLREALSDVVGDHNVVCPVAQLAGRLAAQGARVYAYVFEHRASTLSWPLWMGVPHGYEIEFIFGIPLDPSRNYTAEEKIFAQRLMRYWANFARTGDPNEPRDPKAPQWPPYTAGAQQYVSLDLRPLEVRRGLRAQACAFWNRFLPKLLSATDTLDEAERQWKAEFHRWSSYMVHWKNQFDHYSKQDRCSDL

SMILES: Cc1ccc2c(c1)sc(-c1ccc(N(C)C)cc1)[n+]2C [thioflavin T]
- Ki: 1330 ± 50 nM
